# Measured values reported in patent publication US20030216569A1, “Method of making HIV protease inhibitors” (priority 1993, published 2003).
# Target: HIV-1 protease (Human immunodeficiency virus type 1 group M subtype B, UniProt P04585)
# Assay: Fluorescence HIV-1 Protease Inhibitor Assay (Pandex)
# Assay type: biochemical
# Design: made in house; host or cells: E. coli K12 L507/pHP10D (NRRL B-18560)
# Details: normalized to positive control (=1.0); * = a calculated average
# Protocol: A. Preparation of Protease and Gag Fractions
# Lyophils of E. coli K12 L507/pHP10D were obtained from the Northern Regional Research Laboratory, Peoria, Ill. 61604, under the accession number NRRL B-18560 (deposited Nov. 14, 1989). The lyophils were decanted into tubes containing 10 ml LB medium (10 g Bacto-tryptone, 5 g Bacto-yeast extract, and 10 g aqueous sodium chloride per liter; the pH was adjusted to 7.5 and incubated at 32° C. overnight).
# A small portion of the overnight culture was placed on LB-agar (LB medium with 15 g/L Bacto-agar) plates containing 12.5 micrograms/ml tetracycline in a manner so as to obtain a single colony isolate of E. coli K12 L507/pHP10D. The single colony obtained was inoculated into 10 ml of LB medium containing 12.5 micrograms/ml tetracycline and incubated overnight at 32° C. with vigorous shaking. The 10 ml overnight culture was inoculated into LB medium containing 12.5 micrograms/ml tetracycline and incubated at 32° C. with vigorous shaking until the culture reached mid-log phase. […]
# 3. Preparation of Protease Fraction
# A culture of E. coli K12 L507/pHP10D was grown to mid-log phase at 32° C. in LB media containing 12.5 micrograms/ml tetracycline. The cultivation temperature was quickly elevated to 40° C. to induce gene expression, and the cells were allowed to grow for 2.5 hours at this temperature before the culture was quickly chilled on ice. The cells were centrifuged and the cell pellet was resuspended in 20 ml of 50 mmol MES buffer (pH 6.0) containing 1 mmol EDTA, 1 mmol DTT, 1 mmol PMSF and 10% glycerol (“Buffer A”). Cells were lysed by sonication using a Fischer Model 300 Dismembrator and a microtip probe. Following centrifugation at 27,000×g, the supernatant was diluted to a total volume of 60 ml with Buffer A and loaded onto a 2.0×19 cm QAE-Sepharose column (1 ml/min, 4° C.), that had been equilibrated in Buffer A. The column was washed isocratically for 180 min and then eluted with a gradient eluent of […] aqueous sodium chloride in Buffer A over 120 min. Enzymatic activity was measured by HPLC using the synthetic peptide Ser-Gln-Asn-Tyr-Pro-Ile-Val as described in Margolin et al., Biochem. Biophys. Res. Commun., 167, 554-560 (1990); the production of the p1 peptide (Ser-Gln-Asn-Tyr) was measured.
# The active fractions were combined, adjusted to […] 1.2M in ammonium sulfate, and applied to a 2.0×18 cm hexyl agarose column that had been equilibrated in Buffer A containing 1.2M ammonium sulfate. The sample was loaded at a flow rate of 1 ml/min at 4° C., washed with the equilibration buffer for 240 min (1 ml/min) and then eluted using a reverse linear gradient of 1.2-0M ammonium sulfate in Buffer A for 120 min at the same flow rate. The column was then washed isocratically in Buffer A for 120 min.
# The active fractions were combined, concentrated to 10 ml using an Amicon stirred cell with a YM-10 membrane and then applied to a MonoS cation exchange column (1.0×10 cm) that had been equilibrated in Buffer A. The sample was loaded at a flow rate of 1 ml/min at 25° C. After washing isocratically for 30 min, the protease was eluted using a linear gradient of 0-0.45M aqueous sodium chloride in Buffer A over 40 min. The column was washed isocratically in Buffer A containing 0.45M aqueous sodium chloride for 30 minutes.
# The active fractions were combined and concentrated to 200 microliters using an Amicon stirred cell and a YM-10 membrane and then the protease was applied to a Superose 6 size exclusion column equilibrated in Buffer A containing 0.1M aqueous sodium chloride.
SMILES,Fluorescence Assay IC50 in ng/mL,Fluorescence Assay IC50 [µg/mL]
"Cc1c(O)cccc1C(=O)N[C@@H](Cc1ccccc1)[C@H](O)CN1CCC[C@H]1C(=O)NC(C)(C)C (relative stereo) [Example 4, [2S-(2R*,2′S*,3′R*)]-1-[2′-Hydroxy-3′-phenylmethyl-4′-aza-5′-oxo-5′-(2″-methyl-3″-hydroxyphenyl)pentyl] pyrrolidine-2-N-t-butylcarboxamide]",1425* ng/mL,–
"Cc1c(O)cccc1C(=O)N[C@@H](Cc1ccccc1)[C@H](O)CN1CCCC[C@H]1C(=O)NC(C)(C)C (relative stereo) [Example 6, [2S-(2R*,2′S*,3′R*)]-1-[2′-Hydroxy-3′-phenylmethyl-4′-aza-5′-oxo-5′-(2″methyl-3″-hydroxyphenyl)pentyl]piperidine-2-N-t-butylcarboxamide]",513* ng/mL,–
"Cc1c(C(=O)N[C@@H](Cc2ccccc2)[C@H](O)CN2C[C@H]3CCCC[C@H]3C[C@H]2C(=O)NC(C)(C)C)cc[nH]c1=O (relative stereo) [Example 16, [3S-(3R*,4aR*,8aR*,2′S*,3′R*)]-2-[2′-Hydroxy-3′-phenylmethyl-4′-aza-5′-oxo-5′-(2″-oxo-3″-methyl-pyrid-4″-yl)pentyl] decahydroisoquinoline-3-N-t-butylcarboxamide]",–,0.329
"Cc1ccc(CO)cc1C(=O)N[C@@H](Cc1ccccc1)[C@H](O)Cc1ccccc1C(=O)NC(C)(C)C (relative stereo) [Example 41, [2′R-(2′R*,3′S*)]-N-t-Butyl-2-[2′-hydroxy-3′-phenylmethyl-4′-aza-5′-oxo-5′-(2″methyl-5″-hydroxymethylphenyl)pentyl] benzamide]",–,0.006
"CNc1cccc(C(=O)N[C@H](CSc2ccc3ccccc3c2)[C@H](O)Cc2ccccc2C(=O)NC(C)(C)C)c1C (relative stereo) [Example 43, [2′R-(2′R*,3′S*)]-N-t-Butyl-2-[2′-hydroxy-3′-naphth-2-ylthiomethyl-4′-aza-5′-oxo-5′-(2″-methyl-3″N(methyl)aminophenyl)pentyl] benzamide]",–,0.54
"Cc1c(O)cccc1C(=O)N[C@H](CSc1ccc2ccccc2c1)[C@H](O)Cc1ccccc1C(=O)NC(C)(C)C (relative stereo) [Example 46, [2′R-(2′R*,3′S*)]-N-t-Butyl-2-[2′-hydroxy-3′-naphth-2-ylthiomethyl-4′-aza-5′-oxo-5′-(2″-methyl-3″-hydroxyphenyl)pentyl] benzamide]",–,0.063
"Cc1ccc(N)cc1C(=O)N[C@H](CSc1ccc2ccccc2c1)[C@H](O)Cc1ccccc1C(=O)NC(C)(C)C (relative stereo) [Example 47, [2′R-(2′R*,3′S*)]-N-t-Butyl-2-[2′-hydroxy-3′-naphth-2-ylthiomethyl-4′-aza-5′-oxo-5′-(2″-methyl-5″-aminophenyl)pentyl] benzamide]",–,0.091
"Cc1c(O)cccc1C(=O)N[C@H](CSc1ccc2ccccc2c1)[C@H](O)Cc1ccc2ccccc2c1C(=O)NC(C)(C)C (relative stereo) [Example 48, [2′R-(2′R*,3′S*)]-N-t-Butyl-2-[2′-hydroxy-3′-naphth-2-ylthiomethyl-4′-aza-5′-oxo-5′-(2″-methyl-3″-hydroxyohenyl)pentyl]-1-naphthylamide]",–,0.177
"CC(C)(C)NC(=O)c1ccccc1C[C@@H](O)[C@@H](CSc1ccc2ccccc2c1)NC(=O)c1cccc(O)c1 (relative stereo) [Example 51, [2′R-(2′R*,3′S*)]-N-t-Butyl-2-[2′-hydroxy-3′-naphth-2-ylthiomethyl-4′-aza-5′-oxo-5′-(3″-hydroxyphenyl)pentyl] benzamide]",–,0.5
"Cc1ccccc1C(=O)N[C@H](CSc1ccc2ccccc2c1)[C@H](O)Cc1ccccc1C(=O)NC(C)(C)C (relative stereo) [Example 52, [2′R-(2′R*,3′S*)]-N-t-Butyl-2-[2′-hydroxy-3′-naphth-2-ylthiomethyl-4′-aza-5′-oxo-5′-(2″-methylphenyl)pentyl] benzamide]",–,0.281
"Cc1c(N)cc(N)cc1C(=O)N[C@H](CSc1ccc2ccccc2c1)[C@H](O)Cc1ccccc1C(=O)NC(C)(C)C (relative stereo) [Example 53, [2′R-(2′R*,3′S*)]-N-t-Butyl-2-[2′-hydroxy-3′-naphth-2-ylthiomethyl-4′-aza-5′-oxo-5′-(2″-methyl-3″,5″-diaminophenyl)pentyl] benzamide]",–,0.055
"CC(C)(C)NC(=O)c1ccccc1C[C@@H](O)[C@@H](CSc1ccc2ccccc2c1)NC(=O)c1cccc(O)c1Cl (relative stereo) [Example 56, [2′R-(2′R*,3′S*)]-N-t-Butyl-2-[2′-hydroxy-3′-naphth-2-ylthiomethyl-4′-aza-5′-oxo-5′-(2″-chloro-3″-hydroxyphenyl)pentyl] benzamide]",–,0.094
"Cc1ccc(O)cc1C(=O)N[C@H](CSc1ccc2ccccc2c1)[C@H](O)Cc1ccccc1C(=O)NC(C)(C)C (relative stereo) [Example 72, [2′R-(2′R*,3′S*)]-N-t-Butyl-2-[2′-hydroxy-3′-naphth-2-ylthiomethyl-4′-aza-5′-oxo-5′-(2″-methyl-5″-hydroxyphenyl)pentyl] benzamide]",–,0.63

# Same assay, conditions: normalized to positive control (=1.0); * = a calculated average; read-out: Fluorescence Assay IC50 in ng/mL (converted)
row,SMILES,IC50 [nM]
1,"CC(C)(C)NC(=O)c1ccccc1C[C@@H](O)[C@H](CSc1ccc2ccccc2c1)NC(=O)c1cccc2cnccc12 (relative stereo) [Example 57, [2′R-(2′R*,3′S*)]-N-t-Butyl-2-[2′-hydroxy-3′-naphth-2-ylthiomethyl-4′-aza-5′-oxo-5′-(isoquinolin-5″-yl)pentyl] benzamide]",1380
2,"CC(C)(C)NC(=O)c1ccccc1C[C@@H](O)[C@H](CSc1ccc2ccccc2c1)NC(=O)c1cccc2c1CCNC2 (relative stereo) [Example 58, [2′R-(2′R*,3′S*)]-N-t-Butyl-2-[2′-hydroxy-3′-naphth-2-ylthiomethyl-4′-aza-5′-oxo-5′-(1″,2″,3″,4″-tetrahydroisoquinolin-5″-yl)pentyl] benzamide]",309
3,"CC(C)(C)NC(=O)c1ccccc1C[C@@H](O)[C@H](CSc1ccc2ccccc2c1)NC(=O)c1cccc2ncccc12 (relative stereo) [Example 63, [2′R-(2′R*,3′S*)]-N-t-Butyl-2-[2′-hydroxy-3′-naphth-2-ylthiomethyl-4′-aza-5′-oxo-5′-(quinolin-5″-yl)pentyl] benzamide]",433
4,"CC(C)(C)NC(=O)c1ccccc1C[C@@H](O)[C@H](CSc1ccc2ccccc2c1)NC(=O)c1cccc2c1CCCN2 (relative stereo) [Example 64, [2′R-(2′R*,3′S*)]-N-t-Butyl-2-[2′-hydroxy-3′-naphth-2-ylthiomethyl-4′-aza-5′-oxo-5′-(1″,2″,3″,4″-tetrahydroquinolin-5″-yl)pentyl] benzamide]",194

# Same assay, conditions: value as run; 35B value of the same run in footnote or parentheses
row,SMILES,Pandex IC50 ng/ml
1,"Cc1c(C(=O)N[C@@H](Cc2ccccc2)[C@H](O)CN2C[C@H]3CCCC[C@H]3C[C@H]2C(=O)NC(C)(C)C)cc[nH]c1=O (relative stereo) [Example 16, [3S-(3R*,4aR*,8aR*,2′S*,3′R*)]-2-[2′-Hydroxy-3′-phenylmethyl-4′-aza-5′-oxo-5′-(2″-oxo-3″-methyl-pyrid-4″-yl)pentyl] decahydroisoquinoline-3-N-t-butylcarboxamide]",125^e ng/ml

# Same assay, conditions: value as run; 35B value of the same run in footnote or parentheses; read-out: Pandex IC50 ng/ml (converted)
row,SMILES,IC50 [nM]
1,"CC(=O)Oc1cccc(C(=O)N[C@@H](Cc2ccccc2)[C@H](O)CN2C[C@H]3CCCC[C@H]3C[C@H]2C(=O)NC(C)(C)C)c1C (relative stereo) [Example 82, [3S-(3R*, 4aR*, 8aR*, 2′S*, 3′R*)]-2-[2′-Hydroxy-3′-phenylmethyl-4′-aza-5′-oxo-5′-(2″-methyl-3″-(acetyl)hydroxyphenyl)pentyl]decahydroisoquinoline-3-N-t-butyl carboxamide]",325
